The subject of one data set is Fungal. As to the kind of experiment: Fungal activity in vitro, prodrug compared with non-latentiated warhead. Format: cell-based. The text has this: (§1) For example, disk activity against Candida albicans β311 for the prodrug was 0.04 minimal inhibitory concentration with 0.01 for the warhead alone.
A further data set has as its system Candida albicans β311. As to the kind of experiment: Disk activity against Candida albicans β311. The format is cell-based.
Excerpt: as §1

A further data set relates to E. coli CB64recA/F'123. In words: Disc assay for inhibition on seeded agar plates (zones of inhibition after overnight incubation). The format is cell-based, Escherichia coli. Further details: unit not given here. The settings on record: for Zones of inhibition diameter: section C. The protocol: The medium was that of Davis and Mingioli, supplemented with 4 μg/ml of thiamine and 50 μg/ml of required amino acid supplements with 1.5% agar for solid media. Seeded agar plates contained 0.1 ml of an overnight culture per 20 ml of molten agar (kept at 49°) containing appropriate supplements.
[…] of test solution was added to 1/4" diameter paper discs and the discs placed on the surface of agar plates which were incubated overnight at 37°. The bacterial strains of E. coli, whose strains are given hereafter, were obtained from the E. coli Genetic Stock Center.
Zones of inhibition on seeded agar plates after overnight incubation.

[1] abbreviates: 800 nmol per disc, overnight incubation, section B.
Where [2] appears, read: 200 nmol per disc, overnight incubation.
The mark [3] stands for this setting: 800 nmol per disc, overnight incubation.

From patent US4427582A, “Antimicrobial disulfide prodrugs” (SmithKline Beckman Corporation, priority 1982, dated 1984) come the findings set out here.

Where a SMILES comes first, the peptide text is derived from it. The star is where a group is joined. SPy = c1ccc(S*)nc1

Consider “L-alanyl-β-L-alanyl N-oxy 2-pyridyl disulfide”, for which the “activity in vitro relative to 2-mercaptopyridyl-1-one in non-latentiated form” value in the data set with Fungal is given as “generally less activity”. The “potential for irritation relative to 2-mercaptopyridyl-1-one” value in “Potential for irritation” is given as “lower potential for irritation”. In the data set with Candida albicans β311, the “minimal inhibitory concentration (disk activity)” value amounted to 0.04.
For `NCCCC(N)C(=O)NC(CSSCCNc1cc(C(=O)O)nc(C(=O)O)c1)C(=O)O` [Orn--L-Ala--S--MEPDA], the “Zones of inhibition diameter” value in the data set on E. coli CB64recA/F'123 (250-500 nmol per disc, overnight incubation) is reported as 13.
Take `C[C@H](N)C(=O)N[C@@H](CSSc1ccccn1)C(=O)O` [L-Ala--L-Ala--S--2MP, L-alanyl-β-L-alanyl 2-pyridyl disulfide] (H-Ala-Cys(SPy)-OH): in the data set with E. coli CB64recA/F'123 (setting [1]), the “Zone of inhibition diameter” value was determined as 15.
Turning to `[O-][n+]1ccccc1S` [2-mercaptopyridyl-1-one, reference compound], the “minimal inhibitory concentration (disk activity)” value in the data set with Candida albicans β311 is given as 0.01.
On to `C[C@H](NC(=O)C(N)CCCN)C(=O)N[C@@H](CSSCCNc1cc(C(=O)O)nc(C(=O)O)c1)C(=O)O` (stereo partly drawn) [Orn--L-Ala--L-Ala--S--MEPDA], for which the “Zones of inhibition diameter” value with E. coli CB64recA/F'123 (setting [2]) is 10; with E. coli CB64recA/F'123 (setting [3]) it was 12.
Regarding `C[C@H](N)C(=O)N[C@@H](C)C(=O)N[C@@H](CSSCCNc1cc(C(=O)O)nc(C(=O)O)c1)C(=O)O` [L-Ala--L-Ala--L-Ala--S--MEPDA, L-alanyl-L-alanyl-β-L-alanyl 2-(2,6-dicarboxy-pyridyl-4)-aminoethyl disulfide], the “Zone of inhibition diameter” value in the data set with E. coli CB64recA/F'123 (30 nmol, tripeptide alone, section D) came to 11; in the data set with E. coli CB64recA/F'123 (60 nmol, tripeptide alone, section D), 15. Further, the “Zones of inhibition diameter” value in the data set on E. coli CB64recA/F'123 (40 nmol per disc, overnight incubation) came to 9; with E. coli CB64recA/F'123 (setting [2]), 16; in the data set with E. coli CB64recA/F'123 (setting [3]), 24.
As to `C[C@H](N)C(=O)N[C@@H](C)C(=O)N[C@@H](CSSc1ccccn1)C(=O)O` [L-ala- L-Ala--L-ala- S--2MP, L-alanyl-L-alanyl-β-L-alanyl 2-pyridyl disulfide] (H-Ala-Ala-Cys(SPy)-OH), the “Zone of inhibition diameter” value was “( )” in the data set on E. coli CB64recA/F'123 (40 nmol per disc, overnight incubation, section B); 14 in the data set with E. coli CB64recA/F'123 (200 nmol per disc, overnight incubation, section B); 25 with E. coli CB64recA/F'123 (setting [1]).
